Reference: patent EP0979243B1, “ACTIVATION OF PEPTIDES” (Anmat Technology Limited, priority 1997, dated 2006)

Type: biochemical
Experimental: As an example of particulates for use in drug-delivery or diagnostic assay,liposomes encapsulating Calcein (Sigma) dye were prepared by the extrusion method of Biochim. Biophys. Acta (1985) 812; 55. Specifically, Phosphotidylcholine (12mg) and cholesterol (2mg) were evaporated to form a lipid film in a round bottom flask. The film was hydrated with 2ml of 120mM Calcein in 10mM sodium phosphate/120mM Sodium chloride buffer of pH 7.4. Liposomes were then prepared by ten times extrusion through a 0.2 micron polycarbonate filter using the reported method. Any non-encapsulated dye was removed by gel filtration on a PD-10 column.
In a typical assay a 2ml buffer containing a known concentration (depending on the activity) of a peptide prepared as in Example 1 is treated with 3µl liposomes prepared as in Example 2. The progress of dye leakage from the liposomes indicates release of the marker and is followed by recording an increase in fluorescence signal. The assay can be repeated in the presence of a binder. Where Calcein is used as the dye excitation and emission wavelengths of 490nm and 520nm were used. […]. The concentration of binder required to fully bind the peptide can be evaluated using series of binder concentration at fixed peptide concentrations or vice versa. […]

For CC[C@H](C)[C@H](NC(=O)CNC(C)=O)C(=O)NCC(=O)N[C@@H](C)C(=O)N[C@H](C(=O)N[C@@H](CC(C)C)C(=O)N[C@@H](CCCNC(=N)N)C(=O)N[C@H](C(=O)N[C@@H](CC(C)C)C(=O)N[C@H](C(=O)N[C@H](C(=O)NCC(=O)N[C@@H](CCCCNC(=O)CCCC[C@@H]1SC[C@@H]2NC(=O)N[C@@H]21)C(=O)N1CCC[C@H]1C(=O)N[C@@H](C)C(=O)N[C@@H](CC(C)C)C(=O)N[C@H](C(=O)N[C@@H](CO)C(=O)N[C@@H](Cc1c[nH]c2ccccc12)C(=O)N[C@H](C(=O)N[C@@H](CCCNC(=N)N)C(=O)N[C@@H](CCCNC(=N)N)C(=O)N[C@@H](CCCNC(=N)N)C(=O)N[C@@H](CCCNC(=N)N)C(=O)N[C@@H](CCC(N)=O)C(=O)N[C@@H](CCC(N)=O)C(N)=O)[C@@H](C)CC)[C@@H](C)CC)[C@@H](C)O)[C@@H](C)O)C(C)C)C(C)C [biotin modified peptide of example 1b], the “stability of integrated system (single reagent) in the inactive form” value (Figure 4A, under 2hrs, avidin and liposomes in 2ml buffer) was “very stable with little or no leakage of the contents” and the “stability and activation of integrated system” value (Figure 4B, under 17hrs, nitroavidin and liposomes in 2ml buffer, biotin added at point X) was “stable and activated specifically with ligand”.
